These compounds were tested against T1, PD-1/PD-L1 protein/protein interaction (recombinant human PD-L1 protein (19-238), recombinant human PD-1 protein (25-167)) (Homo sapiens, UniProt Q9NZQ7) (assay: PD-1/PD-L1 Homogeneous Time-Resolved Fluorescence (HTRF) Binding Assay). Conditions: 25° C., PBS buffer (pH 7.4), 40 minutes preincubation with inhibitors.
T1 construct: Recombinant human PD-L1 protein (19-238) with a His-tag at the C-terminus; purchased AcroBiosystems PD1-H5229 (PD-L1-His); PD1-H5257 (PD-1-Fc)
T1 sequence (Q9NZQ7 19-238): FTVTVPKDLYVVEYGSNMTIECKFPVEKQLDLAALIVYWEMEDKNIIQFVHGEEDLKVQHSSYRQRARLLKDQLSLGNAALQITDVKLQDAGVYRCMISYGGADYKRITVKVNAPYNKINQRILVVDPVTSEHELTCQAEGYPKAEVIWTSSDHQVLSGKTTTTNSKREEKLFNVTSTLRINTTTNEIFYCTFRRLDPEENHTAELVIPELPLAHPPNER
Summary of the method: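 HTRF read-out (665/620 nm) after 60 min at 25 °C with 1 nM Eu anti-human IgG and 20 nM APC anti-His. Beforehand, inhibitors were preincubated 40 min with Fc-PD-1 (25-167, […] as listed) and His-PD-L1 (19-238, 10 nM) in PBS pH 7.4 with Tween-20, BSA, 1% DMSO; IC50 from log-concentration curve.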

Compound | IC50
Cc1c(Nc2nccc3cc(CNCCO)cnc23)cccc1-c1cccc(Nc2nccc3cc(CNCCO)cnc23)c1C [Example 19, 2,2′-(((((2,2′-dimethyl-[1,1′-biphenyl]-3,3′-diyl)bis(azanediyl))bis(1,7-naphthyridine-8,3-diyl))bis(methylene))bis(azanediyl))bis(ethan-1-ol)] | ≤ 10 nM
CCN(C)CC(=O)N1Cc2nc(-c3cccc(-c4cccc(Nc5nccc6cc(CN7CC[C@H](CC(=O)O)C7)cnc56)c4Cl)c3C)sc2C1 [Example 93, (R)-2-(1-((8-(2-chloro-3′-(5-(2-(ethyl(methyl)amino)acetyl)-5,6-dihydro-4H-pyrrolo[3,4-d]thiazol-2-yl)-2′-methylbiphenyl-3-ylamino)-1,7-naphthyridin-3-yl)methyl)pyrrolidin-3-yl)acetic acid] | 10 to 100 nM
Cc1c(Nc2nccc3cc(CN4CC[C@@H](O)C4)cnc23)cccc1-c1cccc(Nc2ncnc3cc(CN(C)CCO)cnc23)c1C [Example 25, (R)-1-((8-(3′-(7-(((2-hydroxyethyl)(methyl)amino)methyl)pyrido[3,2-d]pyrimidin-4-ylamino)-2,2′-dimethylbiphenyl-3-ylamino)-1,7-naphthyridin-3-yl)methyl)pyrrolidin-3-ol] | ≤ 10 nM
Cc1c(Nc2nccc3cc(CN[C@@H](C)CO)cnc23)cccc1-c1cccc(NC(=O)c2nc3c(n2C)CCN(CC[C@H]2CC[C@H](C(=O)O)CC2)C3)c1Cl [Example 60, trans 4-(2-(2-(2-chloro-3′-(3-(((S)-1-hydroxypropan-2-ylamino)methyl)-1,7-naphthyridin-8-ylamino)-2′-methylbiphenyl-3-ylcarbamoyl)-1-methyl-6,7-dihydro-1H-imidazo[4,5-c]pyridin-5(4H)-yl)ethyl)cyclohexanecarboxylic acid] | ≤ 10 nM
Cc1c(Nc2nccc3cc(CN4CC[C@@H](O)C4)cnc23)cccc1-c1cccc(Nc2nccc3cc(CN4CC[C@@H](C(=O)N(C)C)C4)cnc23)c1C [Example 26, (R)-1-((8-(3′-(3-(((R)-3-hydroxypyrrolidin-1-yl)methyl)-1,7-naphthyridin-8-ylamino)-2,2′-dimethylbiphenyl-3-ylamino)-1,7-naphthyridin-3-yl)methyl)-N,N-dimethylpyrrolidine-3-carboxamide] | ≤ 10 nM

Results, then the compound that gave them:

IC50 | Compound
≤ 10 nM | Cn1cc(CN2CC[C@@H](O)C2)cc(C(=O)Nc2cccc(-c3cccc(Nc4nccc5cc(CN6CC(C(=O)O)C6)cnc45)c3Cl)c2Cl)c1=O [Example 16, (R)-1-((8-(2,2′-dichloro-3′-(5-((3-hydroxypyrrolidin-1-yl)methyl)-1-methyl-2-oxo-1,2-dihydropyridine-3-carboxamido)biphenyl-3-ylamino)-1,7-naphthyridin-3-yl)methyl)azetidine-3-carboxylic acid]
≤ 10 nM | Cc1c(Nc2nccc3cc(CN4CC[C@@H](C(=O)O)C4)cnc23)cccc1-c1cccc(Nc2nccc3cc(C4CCCN4)cnc23)c1C (stereo partly drawn) [Example 71, (3R)-1-((8-(2,2′-dimethyl-3′-(3-(pyrrolidin-2-yl)-1,7-naphthyridin-8-ylamino)biphenyl-3-ylamino)-1,7-naphthyridin-3-yl)methyl)pyrrolidine-3-carboxylic acid]
≤ 10 nM | Cc1c(Nc2nccc3cc(CN4CC(C(=O)O)C4)cnc23)cccc1-c1cccc(NC(=O)c2ccc(CN3CC[C@@H](O)C3)cn2)c1Cl [Example 8, (R)-1-((8-((2′-chloro-3′-(5-((3-hydroxypyrrolidin-1-yl)methyl)picolinamido)-2-methyl-[1,1′-biphenyl]-3-yl)amino)-1,7-naphthyridin-3-yl)methyl)azetidine-3-carboxylic acid]
≤ 10 nM | Cc1c(Nc2nccc3cc(CN4CC[C@@H](O)C4)cnc23)cccc1-c1cccc(Nc2nccc3nc(CN4CC[C@@H](C(=O)O)C4)cnc23)c1C [Example 70, (R)-1-((5-(3′-(3-(((R)-3-hydroxypyrrolidin-1-yl)methyl)-1,7-naphthyridin-8-ylamino)-2,2′-dimethylbiphenyl-3-ylamino)pyrido[4,3-b]pyrazin-2-yl)methyl)pyrrolidine-3-carboxylic acid]

From patent publication US12466822B2, “Heterocyclic compounds as immunomodulators” (Incyte Corporation, priority 2016, dated 2025)
